# Assay results as given in the supplement of paper PMC8149375.
# Tests used:
# Conditions in all cases: treatment: drug alone; 5 days
# [1] = test system: 786-O; assay: GI50, drug alone; higher = less potent
# Protocol: (§1)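 Primary HTS: 8 RCC cell lines treated with 8 doses (up to 10 uM) of each library drug alone for 5 days; viability read by CellTiter-Glo and normalised to DMSO. GI50 was fitted with XLfit (4-parameter), AUC is the area under the dose-response curve, and minimum viability is the lowest fraction of DMSO viability across doses.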
# [2] = test system: UO-31; assay: GI50, drug alone; higher = less potent
# Protocol: as §1
# [3] = test system: ACHN; assay: GI50, drug alone; higher = less potent
# Protocol: as §1
# [4] = test system: SN12C; assay: GI50, drug alone; higher = less potent
# Protocol: as §1
# [5] = test system: CAKI-1; assay: GI50, drug alone; higher = less potent
# Protocol: as §1
# [6] = test system: 769-P; assay: GI50, drug alone; higher = less potent
# Protocol: as §1
# [7] = test system: TK-10; assay: GI50, drug alone; higher = less potent
# Protocol: as §1
# [8] = test system: A498; assay: GI50, drug alone; higher = less potent
# Protocol: as §1
# [9] = test system: 786-O; assay: minimum viability across doses, drug alone, relative to DMSO (fraction); higher = less growth inhibition
# Protocol: as §1
# [10] = test system: UO-31; assay: as above
# Protocol: as §1
# [11] = test system: ACHN; assay: as above
# Protocol: as §1
# [12] = test system: SN12C; assay: as above
# Protocol: as §1
# [13] = test system: CAKI-1; assay: as above
# Protocol: as §1
# [14] = test system: 769-P; assay: as above
# Protocol: as §1
# [15] = test system: TK-10; assay: as above
# Protocol: as §1
# [16] = test system: A498; assay: as above
# Protocol: as §1
# [17] = test system: 786-O; assay: AUC of dose-response viability curve, drug alone (arbitrary (AUC of normalised viability)); higher = less growth inhibition
# Protocol: as §1
# [18] = test system: UO-31; assay: as above
# Protocol: as §1
# [19] = test system: ACHN; assay: as above
# Protocol: as §1
# [20] = test system: SN12C; assay: as above
# Protocol: as §1
# [21] = test system: CAKI-1; assay: as above
# Protocol: as §1
# [22] = test system: 769-P; assay: as above
# Protocol: as §1
# [23] = test system: TK-10; assay: as above
# Protocol: as §1
# [24] = test system: A498; assay: as above
# Protocol: as §1
SMILES,"GI50, drug alone [1] [µM]","GI50, drug alone [2] [µM]","GI50, drug alone [3] [µM]","GI50, drug alone [4] [µM]","GI50, drug alone [5] [µM]","GI50, drug alone [6] [µM]","GI50, drug alone [7] [µM]","GI50, drug alone [8] [µM]",minimum viability across doses [9],minimum viability across doses [10],minimum viability across doses [11],minimum viability across doses [12],minimum viability across doses [13],minimum viability across doses [14],minimum viability across doses [15],minimum viability across doses [16],AUC of dose-response viability curve [17],AUC of dose-response viability curve [18],AUC of dose-response viability curve [19],AUC of dose-response viability curve [20],AUC of dose-response viability curve [21],AUC of dose-response viability curve [22],AUC of dose-response viability curve [23],AUC of dose-response viability curve [24]
CC(C)(C)c1cc(NC(=O)Nc2ccc(-c3cn4c(n3)sc3cc(OCCN5CCOCC5)ccc34)cc2)no1 [Quizartinib (AC220)],1.36,> 10,3.48,> 10,2.62,4.3,> 10,> 10,0.129,1.16,0.381,0.819,0.408,0.234,0.612,1.07,2.76,5.25,2.72,3.25,2.38,2.98,2.84,4.53
NC1(Cc2ccc(Cl)cc2)CCN(c2ncnc3[nH]ccc23)CC1,0.631,3.8,5.91,7.35,> 10,8.76,4.56,> 10,0.0631,0.00579,0.287,0.431,0.348,0.432,0.284,0.905,2.17,4.18,3.38,3.08,3.21,3.31,3.01,4.01
CCn1c(-c2nonc2N)nc2c(C#CC(C)(C)O)ncc(OC[C@H]3CCCNC3)c21,0.396,> 10,9.28,> 10,5.92,> 10,4.51,> 10,0.288,0.769,0.434,0.693,0.432,0.839,0.469,0.979,1.97,3.19,3.03,3.06,2.74,3.15,2.59,3.82
OCc1ccc(-c2ccc(-c3ccc(CO)s3)o2)s1,0.0275,0.389,0.18,0.582,0.0112,0.0427,0.0294,7.46,0.00113,0.0063,0.0234,0.0662,0.00454,0.056,0.032,0.419,1.04,2.33,1.76,2.29,0.628,1.27,1.03,3.4
CN1CCN(C2CCN(C(=O)Nc3cc(Oc4ccc(NC(=O)C5(C(=O)Nc6ccc(F)cc6)CC5)c(F)c4)ccn3)CC2)CC1 [Golvatinib (E7050)],4.23,9.86,1.51,7.83,3.06,9.71,2.59,> 10,0.0352,0.471,0.0761,0.346,0.0988,0.423,0.284,0.613,2.78,5.28,2.67,3.38,3.05,3.55,2.56,4.37
CNC(=O)c1cc(Oc2ccc(NC(=O)Nc3ccc(Cl)c(C(F)(F)F)c3)c(F)c2)ccn1 [Regorafenib (BAY 73-4506)],> 10,2.55,7.85,8.24,7.35,> 10,> 10,> 10,0.598,0.186,0.39,0.387,0.363,0.894,0.536,0.883,2.63,3.11,3.38,3.16,3.16,3.39,3.02,3.76
CNC(=O)c1cc(COc2nnc(Nc3ccc(Cl)cc3)c3ccoc23)ccn1 [Telatinib (BAY 57-9352)],3.22,> 10,9.99,> 10,6.76,9.79,6.45,> 10,0.0383,0.749,0.497,0.79,0.267,0.484,0.319,0.951,2.61,4.45,3.42,3.27,3.3,3.4,2.96,4.32
C[C@]1(O)C[C@@H](c2nc(-c3ccc4ccc(-c5ccccc5)nc4c3)c3c(N)nccn32)C1 [Linsitinib (OSI-906)],> 10,> 10,> 10,> 10,> 10,> 10,> 10,> 10,0.663,0.904,0.495,0.915,0.562,0.878,0.651,0.972,2.85,4.26,3.06,3.35,2.99,3.19,2.79,4.2
Cl.N=C(N)NC(=N)NCCc1ccccc1 [Phenformin hydrochloride],1.5,3.09,> 10,5.25,> 10,> 10,6.89,> 10,0.116,0.0295,0.682,0.0912,0.821,0.841,0.333,0.514,2.31,3.11,3.53,2.87,3.22,3.29,2.95,3.42
